This note sets out measurements from ChEMBL document CHEMBL1148159, “An analysis of phakellin and oroidin structures stimulated by further study of an Agelas sponge” (J Nat Prod, 2004).

The target in this assay is T1, Polyunsaturated fatty acid lipoxygenase ALOX12 (Homo sapiens, UniProt P18054).
T1 sequence (P18054 whole entry): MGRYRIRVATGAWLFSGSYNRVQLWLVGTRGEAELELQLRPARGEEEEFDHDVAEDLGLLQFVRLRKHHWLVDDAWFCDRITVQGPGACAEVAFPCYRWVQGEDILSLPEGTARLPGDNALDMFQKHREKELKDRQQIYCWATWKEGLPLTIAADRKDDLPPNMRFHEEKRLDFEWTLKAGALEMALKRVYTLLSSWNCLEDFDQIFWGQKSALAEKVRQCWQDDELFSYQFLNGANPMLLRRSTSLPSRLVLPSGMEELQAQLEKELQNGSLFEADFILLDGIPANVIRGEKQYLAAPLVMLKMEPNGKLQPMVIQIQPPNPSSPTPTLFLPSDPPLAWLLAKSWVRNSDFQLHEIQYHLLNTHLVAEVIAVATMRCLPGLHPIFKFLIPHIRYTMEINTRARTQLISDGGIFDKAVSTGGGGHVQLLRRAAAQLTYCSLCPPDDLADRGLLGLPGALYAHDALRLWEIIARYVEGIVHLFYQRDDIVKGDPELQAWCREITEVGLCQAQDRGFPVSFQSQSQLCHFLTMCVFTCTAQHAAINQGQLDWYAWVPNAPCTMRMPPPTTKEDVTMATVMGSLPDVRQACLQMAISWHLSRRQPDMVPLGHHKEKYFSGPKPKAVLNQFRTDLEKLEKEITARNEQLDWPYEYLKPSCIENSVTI
The experiment in a line: Inhibition of human 12-lipoxygenase.

`CN1C(N)=N[C@]23CCCN2C(=O)c2cc(Br)c(Br)n2[C@H]13` showed an IC50 of 10.7 µM.
